One substance from patent US7148026B2, “Dog melanin-concentrating hormone receptor” (Merck & Co., Inc., priority 2000, dated 2006) can be followed below.

For the experiment, the system named is dog MCH receptor. The experiment can be described thus: Aequorin bioluminescence assay in 293-AEQ17 cells transfected with dog MCH receptor. Conditions: 293-AEQ17 cells transfected with dog MCH receptor plasmid; fractional response of aequorin luminescence; read-out: EC50 value for activation of the dog MCH receptor. Format: cell-based. The protocol:
Measurement of MCH receptor expression in the aequorin-expressing stable reporter cell line 293-AEQ17 (Button et al., 1993, Cell Calcium, 14, 663–671) was performed using a Luminoskan RT luminometer (Labsystems Inc., Gaithersburg, Md.) controlled by custom software written for a Macintosh PowerPC 6100. 293-AEQ17 cells (8×10^5 cells plated 18 hours before transfection in a T75 flask) were transfected with 22 μg of dog MCH receptor plasmid DNA: 264 μg lipofectamine.
Following approximately 40 hours of expression the apo-aequorin in the cells was charged for 4 hours with coelenterazine (10 μM) under reducing conditions (300 μM reduced glutathione) in ECB buffer (140 mM NaCl, 20 mM KCl, 20 mM HEPES-NaOH [pH=7.4], 5 mM glucose, 1 mM MgCl2, 1 mM CaCl2, 0.1 mg/ml bovine serum albumin). […] 100 μl of cell suspension (corresponding to 5×10^4 cells) was then injected into the test plate containing MCH, and the integrated light emission was recorded over 30 seconds, in 0.5 second units. 20 μL of lysis buffer (0.1% final Triton X-100 concentration) was then injected and the integrated light emission recorded over 10 seconds, in 0.5 second units.
The “fractional response” values for each well were calculated by taking the ratio of the integrated response to the initial challenge to the total integrated luminescence including the Triton X-100 lysis response. […]

Chain of dog MCH receptor (as listed by the source): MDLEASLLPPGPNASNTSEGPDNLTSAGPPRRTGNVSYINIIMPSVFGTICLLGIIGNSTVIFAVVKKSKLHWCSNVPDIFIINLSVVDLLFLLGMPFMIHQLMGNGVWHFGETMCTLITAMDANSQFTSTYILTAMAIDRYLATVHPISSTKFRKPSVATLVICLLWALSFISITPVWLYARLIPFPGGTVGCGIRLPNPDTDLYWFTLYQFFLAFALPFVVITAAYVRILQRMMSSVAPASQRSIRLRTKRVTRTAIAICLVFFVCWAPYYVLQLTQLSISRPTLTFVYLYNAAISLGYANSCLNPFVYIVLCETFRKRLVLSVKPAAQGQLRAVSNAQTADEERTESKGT

Turning to Melanin-concentrating hormone [MCH], the EC50 is about 30 nM.
